# Read-outs that look alike come from different tables or passages of the source.
# Legend:
# [1] = system: S. aureus ATCC 6538; assay: Microdilution with resazurin, antibacterial; format: cell-based, Staphylococcus aureus
# Protocol: (§1) The tested methanol, acetone, and n-hexane extracts, as well as the component (usnic acid) of X. stenophylla, were dissolved in 10% dimethyl sulfoxide (DMSO) and then diluted into the nutrient liquid medium. DMSO was obtained from Acros Organics (Fair Lawn, NJ, USA). Resazurin was obtained from Alfa Aesar GmbH & Co. (KG, Karlsruhe, Germany).
# (§2) The antimicrobial activity of the extracts and components was tested against 19 microorganisms. The experiment involved 15 strains of bacteria (i.e., 6 standard strains: Staphylococcus aureus ATCC 6538, Bacillus subtilis ATCC 6633, Proteus mirabilis ATCC 12453, Pseudomonas aeruginosa ATCC 27853, Klebsiella pneumoniae ATCC 70063, and Escherichia coli ATCC 25922; 9 isolates: Staphylococcus aureus, Escherichia coli, Salmonella enterica, Salmonella Typhimurium, Proteus mirabilis, Klebsiella pneumoniae, Pseudomonas aeruginosa, Bacillus subtilis, and Bacillus cereus). In addition, four fungal strains (i.e., two standard strains: Candida albicans ATCC 10231 and Aspergillus niger ATCC 16888; two isolates: Saccharomyces cerevisiae and Candida albicans) were tested. All isolates were a generous gift from the Institute of Public Health, Kragujevac. The other microorganisms were provided from the collection held by the Microbiology Laboratory Faculty of Science, University of Kragujevac.
# (§3) The bacterial suspensions were prepared by the direct colony method. The turbidity of the initial suspension was adjusted using a densitometer (DEN-1, BioSan, Riga, Latvia). When adjusted to the turbidity of the 0.5 McFarland’s standard (Andrews, 2005) the bacteria suspension contained approximately 10^8 colony-forming units (CFU)/mL, and the suspension of yeast contained 10^6 CFU/mL; 1:100 dilutions of the initial suspension were additionally prepared in sterile 0.85% saline. The suspensions of fungal spores were prepared by gentle stripping of spores from slopes with growing mycelia. The resulting suspensions were 1:1000 diluted in sterile 0.85% saline.
# (§4) Antimicrobial activity was tested by determining the minimum inhibitory concentrations (MICs) and minimum microbicidal concentrations (MBCs) using the microdilution plate method with resazurin [56]. The 96-well plates were prepared by dispensing 100 μL of Mueller–Hinton broth for bacteria and Sabouard broth for fungi into each well. A 10 μL aliquot from the stock solution of the tested extract or component was added to the first row of the plate. Then, two-fold serial dilutions were performed using a multichannel pipette. The obtained concentration range was from 10 to 0.08 mg/mL. The method is described in detail in [76].
# (§5) Each test included growth control and sterility control.
# (§6) Minimum microbicidal concentrations were determined by plating 10 μL of samples from wells where no indicator color change or no mycelia growth was recorded on a nutrient agar medium. At the end of the incubation period, the lowest concentration with no growth (no colony) was defined as the minimum microbicidal concentration.
# [2] = system: S. aureus (isolate); assay: Microdilution with resazurin, antibacterial; format: cell-based, Staphylococcus aureus
# Protocol: as §1, §2, §3, §4, §5, §6
# [3] = system: P. aeruginosa biofilm; assay: Antibiofilm activity (biofilm formation, crystal violet); format: cell-based, Pseudomonas aeruginosa; conditions: P. aeruginosa, 37 °C, 48 h
# Protocol: (§7) The ability of S. aureus ATCC 6538 and P. aeruginosa to form biofilms was assayed as described by O’Toole et al. with some modifications. Briefly, the tissue culture of 96-well microtiter plates (Sarstedt, Germany) were prepared by dispensing 100 µL of nutrient broth (i.e., Mueller–Hinton broth) into each well. Ten microliters of spore suspension (10^8 colony-forming units (CFU)/mL) was added into each row. […] Biofilms formed by adherent cells in 96-well microtiter plates were stained with crystal violet (0.1% w/v; Fluka AG, Buchs, Switzerland) and incubated at room temperature for 20 min. Excess stain was rinsed off by thorough washing with deionized water and then with […] of 96% ethanol. Optical densities (ODs) of stained adherent bacteria were determined with an enzyme-linked immunosorbent assay (ELISA) plate reader (RT-2100C, Rayto, Shenzhen, China) at a 630 nm wavelength. Only broth served as a control to check sterility and nonspecific binding of media. To compensate for background absorbance, OD readings from sterile medium, fixative, and dye were averaged and subtracted from all test values. All tests were performed in duplicate. The tissue culture of 96-well microtiter plates (Sarstedt, Nümbrecht, Germany) were prepared by dispensing 100 µL of nutrient broth (i.e., Mueller–Hinton broth) into each well. From the stock solution of the tested extracts or components (concentration: 20 mg/mL), 100 µL was added to the first row of the microtiter plate. Two-fold serial dilutions were then made using a multichannel pipette, following which 10 µL of fresh bacterial suspension was added to each well. The inoculated microtiter plates were incubated at 37 °C for 48 h. After incubation, the content of each well was gently removed by tapping the microtiter plates. […] Biofilms formed by adherent cells in 96-well microtiter plates were stained with crystal violet (0.1% w/v; Fluka AG, Switzerland) and incubated at room temperature for 20 min. Excess stain was rinsed off by thorough washing with deionized water and then with […] densities (ODs) of stained adherent bacteria were determined with an enzyme-linked immunosorbent assay (ELISA) plate reader at a 630 nm wavelength. […] Only broth or broth with extracts served as a control to check the sterility and nonspecific binding of media. To compensate for background absorbance, OD readings from sterile medium, extracts, fixative, and dye were averaged and subtracted from all test values. All tests were performed in duplicate.
# [4] = system: K. pneumoniae (isolate); assay: Microdilution with resazurin, antibacterial; format: cell-based, Klebsiella pneumoniae
# Protocol: as §1, §2, §3, §4, §5, §6
# [5] = system: K. pneumoniae ATCC 70063; assay: Microdilution with resazurin, antibacterial; format: cell-based, Klebsiella pneumoniae
# Protocol: as §1, §2, §3, §4, §5, §6
# [6] = system: B. subtilis (isolate); assay: Microdilution with resazurin, antibacterial; format: cell-based, Bacillus subtilis
# Protocol: as §1, §2, §3, §4, §5, §6
# [7] = system: B. subtilis ATCC 6633; assay: Microdilution with resazurin, antibacterial; format: cell-based, Bacillus subtilis
# Protocol: as §1, §2, §3, §4, §5, §6
# [8] = system: E. coli ATCC 25922; assay: Microdilution with resazurin, antibacterial; format: cell-based, Escherichia coli
# Protocol: as §1, §2, §3, §4, §5, §6
# [9] = system: E. coli (isolate); assay: Microdilution with resazurin, antibacterial; format: cell-based, Escherichia coli
# Protocol: as §1, §2, §3, §4, §5, §6
# [10] = system: S. aureus ATCC 6538 biofilm; assay: Antibiofilm activity (biofilm formation, crystal violet); format: cell-based, Staphylococcus aureus; conditions: S. aureus ATCC 6538, 37 °C, 48 h
# Protocol: as §7
# [11] = system: B. cereus (isolate); assay: Microdilution with resazurin, antibacterial; format: cell-based, Bacillus cereus
# Protocol: as §1, §2, §3, §4, §5, §6
# [12] = system: S. Typhimurium (isolate); assay: Microdilution with resazurin, antibacterial; format: cell-based, Salmonella Typhimurium
# Protocol: as §1, §2, §3, §4, §5, §6
molecule,measurement,setting,value
"CN(C)[C@@H]1C(O)=C(C(N)=O)C(=O)[C@@]2(O)C(O)=C3C(=O)c4c(O)cccc4[C@@](C)(O)[C@H]3C[C@@H]12 [TC, tetracycline]",MBC,"[1]; Staphylococcus aureus, ATCC6538, antibiotics, read-out: MBC",6 µg/mL
same,MIC,"[1]; Staphylococcus aureus, ATCC6538, antibiotics, read-out: MIC",3 µg/mL
same,MBC,"[2]; Staphylococcus aureus, antibiotics, read-out: MBC",< 0.06 µg/mL
same,MIC,"[2]; Staphylococcus aureus, antibiotics, read-out: MIC",< 0.06 µg/mL
same,"BIC90 (biofilm inhibitory concentration, 90% reduction of biofilm coverage)",[3],>1000 µg/mL
same,IC50,"[3]; Pseudomonas aeruginosa, read-out: BIC50 (biofilm inhibitory concentration, 50% reduction of biofilm coverage)",> 1000 µg/mL
same,MBC,"[4]; Klebsiella pneumoniae, antibiotics, read-out: MBC",32 µg/mL
same,MIC,"[4]; Klebsiella pneumoniae, antibiotics, read-out: MIC",4 µg/mL
same,MBC,"[5]; Klebsiella pneumoniae, ATCC70063, antibiotics, read-out: MBC",64 µg/mL
same,MIC,"[5]; Klebsiella pneumoniae, ATCC70063, antibiotics, read-out: MIC",4 µg/mL
same,MBC,"[6]; Bacillus subtilis, antibiotics, read-out: MBC",0.25 µg/mL
same,MIC,"[6]; Bacillus subtilis, antibiotics, read-out: MIC",< 0.06 µg/mL
same,MBC,"[7]; Bacillus subtilis, ATCC6633, antibiotics, read-out: MBC",0.37 µg/mL
same,MIC,"[7]; Bacillus subtilis, ATCC6633, antibiotics, read-out: MIC",0.25 µg/mL
same,MBC,"[8]; Escherichia coli, ATCC25922, antibiotics, read-out: MBC",6 µg/mL
same,MIC,"[8]; Escherichia coli, ATCC25922, antibiotics, read-out: MIC",4 µg/mL
same,MBC,"[9]; Escherichia coli, antibiotics, read-out: MBC",6 µg/mL
same,MIC,"[9]; Escherichia coli, antibiotics, read-out: MIC",2 µg/mL
same,"BIC90 (biofilm inhibitory concentration, 90% reduction of biofilm coverage)",[10],>1000 µg/mL
same,IC50,"[10]; Staphylococcus aureus, ATCC6538, read-out: BIC50 (biofilm inhibitory concentration, 50% reduction of biofilm coverage)",249 µg/mL
same,MBC,"[11]; Bacillus cereus, antibiotics, read-out: MBC",0.5 µg/mL
same,MIC,"[11]; Bacillus cereus, antibiotics, read-out: MIC",0.25 µg/mL
same,MBC,"[12]; Salmonella enterica, antibiotics, read-out: MBC",2 µg/mL
usnic acid,MBC,[1]; extracts and usnic acid,625 µg/mL
same,MIC,[1]; extracts and usnic acid,312.5 µg/mL
same,MBC,[2]; extracts and usnic acid,156 µg/mL
same,MIC,[2]; extracts and usnic acid,156 µg/mL
same,"BIC50 (biofilm inhibitory concentration, 50% reduction of biofilm coverage)",[3],"> 10,000 µg/mL"
same,"BIC90 (biofilm inhibitory concentration, 90% reduction of biofilm coverage)",[3],"> 10,000 µg/mL"
same,"BIC50 (biofilm inhibitory concentration, 50% reduction of biofilm coverage)",[3]; listed as UA,"<10,000 µg/mL"
same,"BIC90 (biofilm inhibitory concentration, 90% reduction of biofilm coverage)",[3]; listed as UA,"<10,000 µg/mL"
same,MBC,[4]; extracts and usnic acid,<10000 µg/mL
same,MIC,[4]; extracts and usnic acid,<10000 µg/mL
same,MBC,[5]; extracts and usnic acid,<10000 µg/mL
same,MIC,[5]; extracts and usnic acid,<10000 µg/mL
same,MBC,[6]; extracts and usnic acid,<80 µg/mL
same,MIC,[6]; extracts and usnic acid,<80 µg/mL
same,MBC,[7]; extracts and usnic acid,<80 µg/mL
same,MIC,[7]; extracts and usnic acid,<80 µg/mL
same,MBC,[8]; extracts and usnic acid,<10000 µg/mL
same,MIC,[8]; extracts and usnic acid,<10000 µg/mL
same,MBC,[9]; extracts and usnic acid,<10000 µg/mL
same,MIC,[9]; extracts and usnic acid,<10000 µg/mL
same,"BIC50 (biofilm inhibitory concentration, 50% reduction of biofilm coverage)",[10],1750 µg/mL
same,"BIC90 (biofilm inhibitory concentration, 90% reduction of biofilm coverage)",[10],5000 µg/mL
same,MBC,[11]; extracts and usnic acid,<80 µg/mL
same,MIC,[11]; extracts and usnic acid,<80 µg/mL
same,MBC,[12]; extracts and usnic acid,<10000 µg/mL
same,MIC,[12]; extracts and usnic acid,<10000 µg/mL
